Measurements: US11155537B2, “Crystal of benzofuran derivative free base and preparation method” (Jiangsu Hengrui Medicine Co., Ltd., priority 2017, dated 2021)

How the values were obtained:
[1] = Long-term, accelerated stability of crystal forms B and D (XRPD); assay type: physicochemical; settings: Day 20; for change of XRPD peaks / crystal form stability: spread flat in the air
Method: 2. X-ray Powder Diffraction, XRPD
Instrument type: BRUKER D8 Discover A25 X-ray powder diffractometer
Ray: monochromatic Cu—Kα ray (λ=1.5406 Å)
Scanning mode: θ/2,θ Scanning range: 10-48°
Voltage: 40 kV, Electric current: 40 mA
The sample of crystal form B was spread flat in the air to test sample stability under conditions of 25° C.-65% relative humidity (RH), and the sampling time was Day 20. The sample of crystal form D was spread flat in the air to test sample stability under conditions of 40° C.-75% RH and 25° C.-65% RH, and the sampling time was Day 20.

[2] = Dynamic Vapour Sorption (DVS) hygroscopicity; assay type: physicochemical; settings: 25° C., water, humidity change 0-95-0-95-0% RH; FIGS. 8 and 9
Method: 3. Dynamic Vapour Sorption, DVS
Instrument type: DVS advantage
The crude product N-((4,6-dimethyl-2-oxo-1,2-dihydropyridin-3 -yl)methyl)-5 -ethyl-6-(ethyl(tetrahydro-2 H-pyran-4-yl)amino)-2-(piperidin-1-ylmethyl)benzofuran-4-carboxamide (50 mg, 0.091 mmol) obtained in Comparative example 1 was added to a reaction flask, and methanol (100 μL) was added. The solution was stirred at 25° C. for five days, filtrated and dried under vacuum to obtain a white to pale yellow powder. The DSC spectrum is shown in FIG. 7, in which the onset melting temperature is about 205.45° C.

change of XRPD peaks / crystal form stability ([1]; 25° C.-65% RH)	hygroscopicity (DVS diagrams) [2]	physical stability compared between crystal forms ([1]; 25° C.-65%RH)	change of XRPD peaks / crystal form stability ([1]; 40° C.-75% RH)	SMILES
has changed significantly	–	–	–	CCc1c(N(CC)C2CCOCC2)cc2oc(CN3CCCCC3)cc2c1C(=O)NCc1c(C)cc(C)[nH]c1=O [crystal form B, N-((4,6-dimethyl-2-oxo-1,2-dihydropyridin-3-yl)methyl)-5-ethyl-6-(ethyl(tetrahydro-2 H-pyran-4-yl)amino)-2-(piperidin-1-ylmethyl)benzofuran-4-carboxamide]
–	no obvious hygroscopicity	better than that of crystal form B	has not changed substantially	CCc1c(N(CC)C2CCOCC2)cc2oc(CN3CCCCC3)cc2c1C(=O)NCc1c(C)cc(C)[nH]c1=O [crystal form D, N-((4,6-dimethyl-2-oxo-1,2-dihydropyridin-3-yl)methyl)-5-ethyl-6-(ethyl(tetrahydro-2 H-pyran-4-yl)amino)-2-(piperidin-1-ylmethyl)benzofuran-4-carboxamide]
